US10124012B2, “Method for treatment of hyperglycemia and hyperlipidemia” (priority 2016, dated 2018)

Experiments:
[1] = tested on: membrane GLUT4; test: Membrane GLUT4 expression in C2C12 cells (Western blotting); type: cell-based; conditions: AnK 1, 5, 10 and 25 μg/mL 30 min, insulin 100 nM 25 min, vs CON group
Description: (§1) For the in vitro assay, C2C12 skeletal myoblasts (ATCC CRL-1772) were cultured at 37° C. in Dulbecco's modified Eagle's medium (DMEM; Gibco BRL) supplemented with 10% fetal bovine serum (FBS; Hyclone) and 100 U/ml penicillin and 100 μg/ml streptomycin (Gibco BRL), and split 1:4 using 0.05% trypsin at 80% confluency. Myoblasts were diluted and placed in a 9 cm dish. Cells were cultured to achieve 80-90% confluency and refreshed with […] (2% FBS/DMEM) every 24 hours for 5-7 days. The term “confluency” refers to the proportion of the surface of a culture dish that is covered by adherent cells growing in the dish. 100% confluency refers to complete coverage of the surface by the cells.
(§2) Differentiated C2C12 cells were serum-starved in DMEM/BSA at 37° C. for 2 hours prior to incubation with AnK (at 1, 5, 10, and 25 μg/mL) or vehicle (0.2% dimethyl sulfoxide (DMSO) in saline) for 30 min or with 100 nM insulin for 25 min.
The C2C12 cells of the other group were homogenized in a homogenization buffer having a pH value of about 7.4 and containing 250 mM sucrose, 50 mM Tris, and 0.2 mM edetic acid (EDTA). […]
(§3) Protein concentrations were determined via BCA assay (Pierce). […]
(§4) SDS polyacrylamide gel electrophoresis (SDS-PAGE) and Western blotting. Proteins were detected with antibodies specific for GLUT4, Akt, phospho-Akt (Ser^473), AMPK, and phospho-AMPK (Thr^172).

[2] = tested on: human liver cancer Hep3B cells; conditions: cited from earlier work
[3] = tested on: phospho-Akt (Ser^473)/total-Akt; test: Akt phosphorylation in C2C12 cells (Western blotting); type: cell-based; conditions: AnK 1, 5, 10 and 25 μg/mL 30 min, insulin 100 nM 25 min, vs CON group
Description: as §1, §2
(§5) The abovementioned C2C12 cells were then washed three times with phosphate buffered saline (PBS) and divided into two groups. […]
as §3, §4

[4] = tested on: human neutrophils; conditions: concentration-dependent 1˜25 mM; induced by fMLP and TPA in human neutrophils; cited from earlier work
[5] = tested on: phospho-AMPK (Thr^172)/total-AMPK; test: AMPK phosphorylation in C2C12 cells (Western blotting); type: cell-based; conditions: AnK 1, 5, 10 and 25 μg/mL 30 min, insulin 100 nM 25 min, vs CON group
Description: as §1, §2, §5, §3, §4

C=C(CC[C@@H](C)[C@H]1CC[C@H]2C3=C(C(=O)C[C@]12C)[C@@]1(C)CC[C@@H](O)[C@](C)(O)[C@@H]1C[C@@H]3O)C(C)C(=O)O (stereo partly drawn) [AnK, 3α,4β,7β-trihydroxy-4α-methylergosta-8,24(28)-dien-11-on-25S-26-oic acid]
protein expression of membrane GLUT4 [1]: enhanced | apoptotic cell death [2]: inducing apoptotic cell death | expression ratio of phospho-Akt (p-Akt) to total-Akt (t-Akt) [3]: higher | anti-inflammatory effects (modulation of leukocyte activity, inhibition of reactive oxygen species production) [4]: anti-inflammatory effects | expression ratio of phospho-AMPK (p-AMPK) to total-AMPK (t-AMPK) [5]: higher
